Assay results reported in ChEMBL document CHEMBL4145458, “Natural compounds and combination therapy in colorectal cancer treatment” (2018).

Tests used:
Assay type in all cases: functional
Homo sapiens [1] = assay: Induction of apoptosis in tumor of colorectal cancer patient at 200 mg/day, po administered for 14 days relative to control
Homo sapiens [2] = assay: Reduction in aberrant crypt foci number in colorectal cancer patient at 4 g/day, po administered 30 days relative to control; design: scale not given: the % may be the effect or the level left
[3] = Antitumor activity against human TC118 cells xenografted in Swiss nu/nu mouse assessed as tumor growth inhibition at 150 mg/kg, ip qd for 5 days in presence of 5-FU; conditions: 120 h, read-out: TGI
CT26 = assay: Antitumor activity against mouse CT26 cells implanted in BALB/c mouse at 1 mg/kg, po qd administered through oral gavage for 15 days in presence of cisplatin relative to control
Homo sapiens [4] = assay: Reduction in tumor cell proliferation in colorectal cancer patient at 0.5 to 1 g/day, po administered 8 times per day for 8 days by Ki-67 staining-based microscopic method relative to control; design: scale not given: the % may be the effect or the level left
Homo sapiens [5] = assay: Upregulation of cleaved caspase-3 levels in malignant hepatic tissue of cancer patient at 5 g/day, po administered for 10 to 21 days by immunohistochemistry relative to control

For `C[C@H]1[C@H](OC(=O)CCC(=O)O)O[C@@H]2O[C@@]3(C)CC[C@H]4[C@H](C)CC[C@@H]1[C@@]24OO3` [ARTESUNATE], the Activity (Homo sapiens [1]) was 13%.
In the case of `COc1cc(/C=C/C(=O)CC(=O)/C=C/c2ccc(O)c(OC)c2)ccc1O` [CURCUMIN], the Activity (Homo sapiens [2]) is reported as 40%.
Compound `CC(C)=CCC/C(C)=C/CO` [GERANIOL] has an inhibition in vivo at 150 mg/kg [3] of at most 83%.
In the case of `O=C(/C=C/c1ccc(O)cc1)c1ccc(O)cc1O` [ISOLIQUIRITIGENIN], the Activity (CT26) is reported as 79%.
`Oc1ccc(/C=C/c2cc(O)cc(O)c2)cc1` [RESVERATROL] gave an Activity (Homo sapiens [4]) of 5% and an Activity (Homo sapiens [5]) of 39%.
